Test system: transgenic soybean plants (Gm cytoplasmic/chloroplastic ALT-1-01, ALT-2-01, ALT-3-01)
Assay: Sulfometuron-methyl tolerance of transgenic soybean plants, damage degree by leaf curl and growth point damage
Format: in vivo
Conditions: 120 g ai/ha; for Average damage % 3DAT / Average damage % 7DAT / Average damage % 14DAT / Average damage % 21DAT: 4-fold field concentration; for Average damage % 3DAT: 3 days after spraying; for Average damage % 7DAT: 7 days after spraying; for Average damage % 14DAT: 14 days after spraying; for Average damage % 21DAT: 21 days after spraying
Source text: The herbicide tolerance effects of Gm cytoplasmic ALT-1-01 soybean plants, Gm chloroplastic ALT-1-01 soybean plants, Gm cytoplasmic ALT-2-01 soybean plants, Gm chloroplastic ALT-2-01 soybean plants, Gm cytoplasmic ALT-3-01 soybean plants, Gm chloroplastic ALT-3-01 soybean plants and wild-type soybean plants on Sulfometuron-methyl were detected (at seedling stage), respectively.
Gm cytoplasmic ALT-1-01 soybean plants, Gm chloroplastic ALT-1-01 soybean plants, Gm cytoplasmic ALT-2-01 soybean plants, Gm chloroplastic ALT-2-01 soybean plants, Gm cytoplasmic ALT-3-01 soybean plants, Gm chloroplastic ALT-3-01 soybean plants and wild-type soybean plants were respectively taken and sprayed with Sulfometuron-methyl (120 g ai/ha, 4-fold field concentration) and a blank solvent (water). The damage degree caused by the herbicide was measured for each plant according to the leaf curl degree and the growth point damage degree 3 days after spraying (3 DAT), 7 days after spraying (7 DAT), 14 days after spraying (14 DAT) and 21 days after spraying (21 DAT), respectively: considering conditions of leaves being flat as the untreated plants and growth points being intact as having a damage degree of 0%; considering conditions of veins being locally browned, new leaves being malformed and plant growth being slow as having a damage degree of 50%; and considering conditions of veins being purple to whole plant being dead and growth points being browned and dry as having a damage degree of 100%. There were 2 strains in Gm cytoplasmic ALT-1-01 soybean plants in total (S1 and S2), 2 strains in Gm chloroplastic ALT-1-01 soybean plants in total (S3 and S4), 2 strains in Gm cytoplasmic ALT-2-01 soybean plants in total (S5 and S6), 2 strains in Gm chloroplastic ALT-2-01 soybean plants in total (S7 and S8), 2 strains in Gm cytoplasmic ALT-3-01 soybean plants in total (S9 and S10), 2 strains in Gm chloroplastic ALT-3-01 soybean plants in total (S11 and S12), and 1 strain in wild-type soybean plants (CK1) in total; and 10-15 plants were selected from each strain and tested.

[1] = strain S1 (Gm cytoplasmic ALT-1-01 soybean)
[2] = strain S2 (Gm cytoplasmic ALT-1-01 soybean)
[3] = strain S3 (Gm chloroplastic ALT-1-01 soybean)
[4] = strain S4 (Gm chloroplastic ALT-1-01 soybean)
[5] = strain S5 (Gm cytoplasmic ALT-2-01 soybean)
[6] = strain S6 (Gm cytoplasmic ALT-2-01 soybean)
[7] = strain S7 (Gm chloroplastic ALT-2-01 soybean)
[8] = strain S8 (Gm chloroplastic ALT-2-01 soybean)
[9] = strain S9 (Gm cytoplasmic ALT-3-01 soybean)
[10] = strain S10 (Gm cytoplasmic ALT-3-01 soybean)
[11] = strain S11 (Gm chloroplastic ALT-3-01 soybean)
[12] = strain S12 (Gm chloroplastic ALT-3-01 soybean)

SMILES: COC(=O)c1ccccc1S(=O)(=O)NC(=O)Nc1nc(C)cc(C)n1 [Sulfometuron-methyl, 2-(4,6-dimethylpyrimidine-2-amino-formamido-sulfonyl) methyl benzoate]
- Average damage % 3DAT [1]: 6%
- Average damage % 7DAT [1]: 0%
- Average damage % 14DAT [1]: 0%
- Average damage % 21DAT [1]: 0%
- Average damage % 3DAT [2]: 7%
- Average damage % 7DAT [2]: 0%
- Average damage % 14DAT [2]: 0%
- Average damage % 21DAT [2]: 0%
- Average damage % 3DAT [3]: 0%
- Average damage % 7DAT [3]: 0%
- Average damage % 14DAT [3]: 0%
- Average damage % 21DAT [3]: 0%
- Average damage % 3DAT [4]: 0%
- Average damage % 7DAT [4]: 0%
- Average damage % 14DAT [4]: 0%
- Average damage % 21DAT [4]: 0%
- Average damage % 3DAT [5]: 6%
- Average damage % 7DAT [5]: 0%
- Average damage % 14DAT [5]: 0%
- Average damage % 21DAT [5]: 0%
- Average damage % 3DAT [6]: 5%
- Average damage % 7DAT [6]: 0%
- Average damage % 14DAT [6]: 0%
- Average damage % 21DAT [6]: 0%
- Average damage % 3DAT [7]: 0%
- Average damage % 7DAT [7]: 0%
- Average damage % 14DAT [7]: 0%
- Average damage % 21DAT [7]: 0%
- Average damage % 3DAT [8]: 0%
- Average damage % 7DAT [8]: 0%
- Average damage % 14DAT [8]: 0%
- Average damage % 21DAT [8]: 0%
- Average damage % 3DAT [9]: 8%
- Average damage % 7DAT [9]: 0%
- Average damage % 14DAT [9]: 0%
- Average damage % 21DAT [9]: 0%
- Average damage % 3DAT [10]: 7%
- Average damage % 7DAT [10]: 0%
- Average damage % 14DAT [10]: 0%
- Average damage % 21DAT [10]: 0%
- Average damage % 3DAT [11]: 0%
- Average damage % 7DAT [11]: 0%
- Average damage % 14DAT [11]: 0%
- Average damage % 21DAT [11]: 0%
- Average damage % 3DAT [12]: 0%
- Average damage % 7DAT [12]: 0%
- Average damage % 14DAT [12]: 0%
- Average damage % 21DAT [12]: 0%
- herbicide tolerance conferred by the thifensulfuron hydrolase (ALT-1, ALT-2 and ALT-3) (transgenic soybean plants): conferred a high level of Sulfometuron-methyl herbicide tolerance

Source: patent US20190055576A1, “USE OF HERBICIDE-TOLERANT PROTEIN” (BEIJING DABEINONG TECHNOLOGY GROUP CO., LTD., priority 2016, published 2019)
